Patent publication US20240116896A1 (ATAI Life Sciences AG, priority 2022, published 2024)
pEC50: −log10 of the molar value.

Columns and labels:
5-HT2A = 5-HT2A (Homo sapiens, UniProt P28223); assay: IPOne (IP1 HTRF) assay, CHO-K1 cells expressing human 5-HT2A; format: cell-based; design: expressed in transfected cells; host or cells: CHO-K1; settings: for activation at 0.3 µM / activation at 30 µM: CHO-K1, percentage of reference agonist α-Me-5-HT at its EC100; for pEC50: CHO-K1, human 5-HT2A
Protocol: (§1) IPOne assays were performed using stably-transfected cell lines (CHO-K1) expressing human 5-HT2A or 5-HT2B receptors. Upon activation of these receptors, Gq-mediated myo-Inositol 1 phosphate (IP1) production is detected by a Homogeneous Time-Resolved Fluorescence (HTRF) competitive immunoassay, whereby an IP1 analog coupled to a fluorophore (acceptor) competes with endogenous IP1 for binding to a labeled anti-IP1 antibody (donor). The resulting signal is inversely proportional to the concentration of IP1 in the sample. Cells were incubated with an IP1 inhibitor (to prevent degradation and allow detection) and either reference compound or test compound. α-Me-5-HT was used as the assay reference agonist. Activation of 5-HT2A or 5-HT2B receptors was measured via accumulation of IP1 detected by HTRF. Agonist activity of test compounds was expressed as a percentage of the activity of the reference agonist at its EC100 concentration.

5-HT2B = 5-HT2B (Homo sapiens, UniProt P41595); assay: IPOne (IP1 HTRF) assay, CHO-K1 cells expressing human 5-HT2B; format: cell-based; design: expressed in transfected cells; host or cells: CHO-K1; settings: for activation at 0.3 µM / activation at 30 µM: CHO-K1, percentage of reference agonist α-Me-5-HT at its EC100; for pEC50: CHO-K1, human 5-HT2B
Protocol: as §1

Chain of 5-HT2A (P28223 whole entry): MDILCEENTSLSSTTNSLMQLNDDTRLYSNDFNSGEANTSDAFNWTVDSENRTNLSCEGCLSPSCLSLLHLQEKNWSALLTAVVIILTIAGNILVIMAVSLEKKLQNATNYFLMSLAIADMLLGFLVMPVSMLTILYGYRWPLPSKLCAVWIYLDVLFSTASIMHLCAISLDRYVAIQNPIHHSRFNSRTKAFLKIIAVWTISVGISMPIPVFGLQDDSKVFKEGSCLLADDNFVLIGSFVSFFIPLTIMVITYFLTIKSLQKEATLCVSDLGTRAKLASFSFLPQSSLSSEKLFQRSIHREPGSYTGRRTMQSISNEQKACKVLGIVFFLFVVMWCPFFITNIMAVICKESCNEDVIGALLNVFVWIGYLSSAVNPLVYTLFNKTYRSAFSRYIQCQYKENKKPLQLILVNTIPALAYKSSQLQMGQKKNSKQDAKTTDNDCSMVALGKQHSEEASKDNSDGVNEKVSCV
Chain of 5-HT2B (P41595 whole entry): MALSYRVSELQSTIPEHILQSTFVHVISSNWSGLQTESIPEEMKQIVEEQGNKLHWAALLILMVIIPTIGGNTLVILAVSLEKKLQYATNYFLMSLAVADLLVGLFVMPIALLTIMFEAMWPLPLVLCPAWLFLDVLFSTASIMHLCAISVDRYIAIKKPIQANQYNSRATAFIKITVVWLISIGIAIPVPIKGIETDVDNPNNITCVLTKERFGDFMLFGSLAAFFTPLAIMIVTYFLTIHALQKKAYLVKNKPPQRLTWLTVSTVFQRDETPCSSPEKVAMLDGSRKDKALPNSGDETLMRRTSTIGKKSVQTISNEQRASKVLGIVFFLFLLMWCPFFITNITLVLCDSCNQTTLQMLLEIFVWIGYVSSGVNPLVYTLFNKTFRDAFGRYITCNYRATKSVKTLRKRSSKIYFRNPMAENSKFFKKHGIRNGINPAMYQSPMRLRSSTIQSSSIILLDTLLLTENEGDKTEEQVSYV

Compound | activation at 0.3 µM (5-HT2A) [%] | activation at 30 µM (5-HT2A) [%] | activation at 0.3 µM (5-HT2B) [%] | activation at 30 µM (5-HT2B) [%] | pEC50 (5-HT2A) | pEC50 (5-HT2B)
OC1CCN(CCc2c[nH]c3ccccc23)C1 (stereo not drawn) [Compound 7, 1-(2-(1H-indol-3-yl)ethyl)pyrrolidin-3-ol] | 7.01 | 42 | 5.71 | 28.7 | – | –
NCC1CCCN1CCc1c[nH]c2ccccc12 (stereo not drawn) [Compound 22] | 10.2 | 99 | 20 | 99.6 | – | –
OCC1CCCN1CCc1c[nH]c2cccc(O)c12 (stereo not drawn) [Compound 29, 3-(2-(2-(hydroxymethyl)pyrrolidin-1-yl)ethyl)-1H-indol-4-ol] | 99.4 | 99.2 | 90.8 | 96.4 | – | –
COc1ccc2[nH]cc(CCN3CCCC3CO)c2c1 (stereo not drawn) [Compound 30] | 97.8 | 100 | 89.4 | 98.8 | – | –
OC[C@@H]1CCCN1CCc1c[nH]c2ccccc12 [Compound 31, (S)-(1-(2-(1H-indol-3-yl)ethyl)pyrrolidin-2-yl)methanol] | 76.5 | 99.5 | 54.6 | 97 | 7.21 | 6.90
OC[C@H]1CCCN1CCc1c[nH]c2ccccc12 [Compound 32, (R)-(1-(2-(1H-indol-3-yl)ethyl)pyrrolidin-2-yl)methanol] | 7.16 | 42.1 | 4.28 | 33.9 | – | –
COC(=O)[C@@H]1CCCN1CCc1c[nH]c2ccccc12 [Compound 33, methyl (2-(1H-indol-3-yl)ethyl)-L-prolinate] | 44 | 94.4 | 33.9 | 91.3 | 6.09 | 6.34
COC(=O)[C@H]1CCCN1CCc1c[nH]c2ccccc12 [Compound 34, methyl (2-(1H-indol-3-yl)ethyl)-D-prolinate] | 4.6 | 29.9 | 1.34 | 35.1 | – | –
COc1ccc(Br)c2[nH]cc(CCN3CCCC3CO)c12 (stereo not drawn) [Compound 42, (1-(2-(7-bromo-4-methoxy-1H-indol-3-yl)ethyl)pyrrolidin-2-yl)methanol] | 78.5 | 94.1 | 22 | 46.2 | – | –
COc1cccc2[nH]cc(CCN3CCC[C@H]3CO)c12 [Compound 48, (S)-(1-(2-(4-methoxy-1H-indol-3-yl)ethyl)pyrrolidin-2-yl)methanol] | 83.2 | 90.9 | 62 | 83.4 | 7.95 | 7.65
OC[C@@H]1CCCN1CCc1c[nH]c2cccc(O)c12 [Compound 49, (S)-3-(2-(2-(hydroxymethyl)pyrrolidin-1-yl)ethyl)-1H-indol-4-ol] | 99.2 | 100 | 92 | 99.1 | 7.65 | 7.36
COc1ccc2[nH]cc(CCN3CCC[C@H]3CO)c2c1 [Compound 50] | 100 | 103 | 101 | 101 | 7.90 | 8.06
OC[C@@H]1CCCN1CCc1c[nH]c2ccc(O)cc12 [Compound 51] | 99 | 101 | 85.7 | 99.1 | 7.34 | 7.06
CCOC(=O)[C@@H]1CCCN1CCc1c[nH]c2ccccc12 [Compound 52, ethyl (2-(1H-indol-3-yl)ethyl)-L-prolinate] | 24 | 101 | 25.4 | 99.2 | 6.05 | 5.59
OC[C@H]1CCN1CCc1c[nH]c2ccccc12 [Compound 53, (R)-(1-(2-(1H-indol-3-yl)ethyl)azetidin-2-yl)methanol] | 3.07 | 70.7 | 16.3 | 74.7 | – | –
OC[C@@H]1CCN1CCc1c[nH]c2ccccc12 [Compound 54, (S)-(1-(2-(1H-indol-3-yl)ethyl)azetidin-2-yl)methanol] | 81.1 | 101 | 62 | 97.9 | 6.60 | 6.11

Compound | activation at 0.3 µM (5-HT2A) [%] | activation at 30 µM (5-HT2A) [%] | activation at 0.3 µM (5-HT2B) [%] | activation at 30 µM (5-HT2B) [%] | pEC50 (5-HT2A) | pEC50 (5-HT2B)
CC(C)OC(=O)[C@@H]1CCCN1CCc1c[nH]c2ccccc12 [Compound 55, isopropyl (2-(1H-indol-3-yl)ethyl)-L-prolinate] | 68.1 | 101 | 37.7 | 102 | 6.45 | 5.98
OC[C@@H]1CCCN1CCc1c(Br)[nH]c2ccccc12 [Compound 57, (S)-(1-(2-(2-bromo-1H-indol-3-yl)ethyl)pyrrolidin-2-yl)methanol] | 4.69 | 30.9 | -1.03 | 73 | – | –
OC[C@@H]1CCCN1CCc1c[nH]c2ccc(F)cc12 [Compound 59, (S)-(1-(2-(5-fluoro-1H-indol-3-yl)ethyl)pyrrolidin-2-yl)methanol] | 86.3 | 89.4 | 79.8 | 85.7 | 8.11 | 8.05
OC[C@@H]1CCCN1CCc1c[nH]c2ccc(OC(F)(F)F)cc12 [Compound 61, (S)-(1-(2-(5-(trifluoromethoxy)-1H-indol-3-yl)ethyl)pyrrolidin-2-yl)methanol] | 46.1 | 88.3 | 37.5 | 76.2 | 7.12 | 7.24
COc1cccc2[nH]c(Br)c(CCN3CCCC3CO)c12 (stereo not drawn) [Compound 67, (1-(2-(2-bromo-4-methoxy-1H-indol-3-yl)ethyl)pyrrolidin-2-yl)methanol] | 27.2 | 95.9 | 19.2 | 87.1 | – | –
OCC1CCCN1CCc1c(Br)[nH]c2ccc(F)cc12 (stereo not drawn) [Compound 69, (1-(2-(2-bromo-5-fluoro-1H-indol-3-yl)ethyl)pyrrolidin-2-yl)methanol] | 15.1 | 83.8 | 27.6 | 90.5 | – | –
OCC1CCCN1CCc1c(Cl)[nH]c2ccc(F)cc12 (stereo not drawn) [Compound 70, (1-(2-(2-chloro-5-fluoro-1H-indol-3-yl)ethyl)pyrrolidin-2-yl)methanol] | 61 | 97.7 | 55.1 | 99.8 | – | –
COc1ccc2[nH]c(Br)c(CCN3CCCC3CO)c2c1 (stereo not drawn) [Compound 72, (1-(2-(2-bromo-5-methoxy-1H-indol-3-yl)ethyl)pyrrolidin-2-yl)methanol] | 5.63 | 37.6 | 13.5 | 41.7 | – | –
C[C@H](O)[C@@H]1CCCN1CCc1c[nH]c2ccccc12 [Compound 73, (S)-1-((S)-1-(2-(1H-indol-3-yl)ethyl)pyrrolidin-2-yl)ethan-1-ol] | 61.9 | 101 | 61.2 | 104 | 6.25 | 6.02
CC(C)(O)[C@@H]1CCCN1CCc1c[nH]c2ccccc12 [Compound 74, 2-[(2S)-1-[2-(1H-indol-3-yl)ethyl]pyrrolidin-2-yl] propan-2-ol] | 80.2 | 102 | 63 | 100 | 6.61 | 6.28
C[C@@H](O)[C@@H]1CCCN1CCc1c[nH]c2ccccc12 [Compound 75] | 23.4 | 87.3 | 5.88 | 80.2 | – | –
CC[C@@H](O)[C@@H]1CCCN1CCc1c[nH]c2ccccc12 [Compound 77, (R)-1-((S)-1-(2-(1H-indol-3-yl)ethyl)pyrrolidin-2-yl)propan-1-ol] | 23.9 | 90.6 | 18.2 | 86.7 | – | –
CC[C@H](O)[C@@H]1CCCN1CCc1c[nH]c2ccccc12 [Compound 78, (S)-1-((S)-1-(2-(1H-indol-3-yl)ethyl)pyrrolidin-2-yl)propan-1-ol] | 1.39 | 64.3 | 5.16 | 82.2 | – | –
COC(=O)[C@]1(C)CCCN1CCc1c[nH]c2ccccc12 [Compound 92, methyl (S)-1-(2-(1H-indol-3-yl)ethyl)-2-methylpyrrolidine-2-carboxylate] | -16.3 | -6.28 | -2.23 | 15.4 | – | –
C[C@@]1(CO)CCCN1CCc1c[nH]c2ccccc12 [Compound 93, (S)-(1-(2-(1H-indol-3-yl)ethyl)-2-methylpyrrolidin-2-yl)methanol] | -11.3 | 1.82 | -0.54 | 25.6 | – | –
